Test results as given in US10001470B2, “Method, system and composition for optically inducing cardiomyocyte contraction” (Sanford-Burnham Medical Research Institute, priority 2009, dated 2018).

Experiments:
[1] = test system: Neonatal Rat Ventricular Myocytes (NRVMs); assay: Calcium transient (Tdecay) in single-pulse stimulated NRVMs, CTIC; assay type: cell-based; details: for Tdecay Mean / Tdecay Diff. (%) control vs compound / Tdecay Difference (ms) control vs compound: single pulse; for Tdecay Mean: average signal of three wells
Text: (§1) A Calcium Transient Image Cytometer (CTIC) instrument and software have been developed at Vala Sciences to analyze calcium transient and other fluorescent read out in stimulated cardiomyocytes which is utilized in the Examples described herein. The instrument consists of a Nikon Eclipse™ microscope with a 20× objective, a Cohu 6612-3000 monochrome ½″ digital/analog progressive scan camera (which operates at 30 or 60 Hz), a Pentium™ 4-based PC, and a 200 gigabyte external “firewire” hard drive.
Platinum electrodes are mounted on a micromanipulator to stimulate cardiomyocytes cultured in a 96-well plate. The plate is placed, without a lid, on the stage of a robotic inverted microscope outfitted for fluorescence microscopy. The mechanical stage of the microscope moves to bring each well into position and the micromanipulator lowers to the pair of electrodes to bring them into contact with the culture medium of the well that is being analyzed. The voltage used to stimulate the cells is on the order of 20 to 30 volts, utilizing square wave pulses of 5 to 20 msec. A “polarity reverser” is included in the circuit to maintain electrode performance and effective stimulation of cardiac myocytes. FIG. 3 describes the prototype setting. After positioned on the well, the electrodes move to the “down” position, the instrument autofocuses on cells nuclei (blue channel), stimulates the cells (single stimulus or at 1 to 3 Hz for 3 to 10 seconds) and acquires the fluo-4 channel (green channel). Subsequently, the electrodes move to the “up” position and the instrument moves to another well, repeating the entire process. The time required to sample each well will range from 20 to 30 seconds, depending on the number of frames that are collected and the rate of stimulation.
The instrument is incorporated in a 37° C. chamber with CO2 and O2 percentage controllers, allowing the execution of experiment in approximate physiological conditions. The calcium analysis software, developed at Vala Sciences as a plug-in for Vala's CyteSeer High Content Analysis™ software, converts the fluo-4 and Hoechst 33342 fluorescence signals in a binary mask, to distinguish portions of the images corresponding to single cells. Then, comparing the images acquired during the stimulation, the software reports the calcium variation for the well or for every single cell and the average value for the well. Traces can be filtered to remove low responders or kinetics with specific characteristics.
A number of kinetic parameters can be automatically derived either for the nuclear, cytoplasm or the whole cell compartments: The Full Width at Half Maximum (FWHM), which is the time required for progression from the 50% point on the upstroke to 50% point on the downstroke, TRise, which is the time from 50% point to 100% on the upstroke, and the TDecay, which is the time period from 100% point to 50% point on the decay phase. Other values can be measured, including the time from 75% to 25% in the downstroke (T75-25) and the value at a particular time. Values are measured for single cells in the well and as average of the well.
The CTIC and calcium recording have been validated also for toxicity-related analysis. In one set of experiments, NRVMs are treated with either sparfloxacin or cisapride. The first one is a fluoroquinolone antibiotic no longer available in the U.S., known to induce QT interval prolongation at high dosage. The second one is a serotonin 5-HT4 receptor agonist, used to cure people with gastro esophageal reflux disease. […] This is a clear hallmark of compounds that predispose to arrhythmia and torsades de pointes.
Tdecay is indicated for the average signal of three control wells and three compound treated wells. The mean, standard deviation (SD) and percent error is calculated for each group. The difference between the control and the compound groups is also indicated.
FIGS. 5A and 5B show calcium transient in drug treated NRVMs. […]

[2] = test system: Neonatal Rat Ventricular Myocytes (NRVMs); assay type: cell-based
Text: as §1
Platinum electrodes are mounted on a micromanipulator to stimulate cardiomyocytes cultured in a 96-well plate. The plate is placed, without a lid, on the stage of a robotic inverted microscope outfitted for fluorescence microscopy. The mechanical stage of the microscope moves to bring each well into position and the micromanipulator lowers to the pair of electrodes to bring them into contact with the culture medium of the well that is being analyzed. […]
The instrument is incorporated in a 37° C. chamber with CO2 and O2 percentage controllers, allowing the execution of experiment in approximate physiological conditions. The calcium analysis software, developed at Vala Sciences as a plug-in for Vala's CyteSeer High Content Analysis™ software, converts the fluo-4 and Hoechst 33342 fluorescence signals in a binary mask, to distinguish portions of the images corresponding to single cells. […]

Early after depolarization (EAD) ([1]; 1 μM) | Effect on Tdecay ([1]; 1 μM) | Tdecay Mean ([1]; 1 μM in recording buffer) | Tdecay Diff. (%) control vs compound ([1]; 1 μM) | Tdecay Difference (ms) control vs compound ([1]; 1 μM) | Effect on Tdecay ([1]; 100 μM during the stimulation) | Tdecay Mean ([1]; 100 μM in recording buffer) | Tdecay Diff. (%) control vs compound ([1]; 100 μM) | Tdecay Difference (ms) control vs compound ([1]; 100 μM) | Calcium flux response to continuous stimulation [2] | Substance
causes early after depolarization (EAD) | induces an increase in Tdecay | 2145 ms | +129% | +1210 ms |  |  |  |  |  | Cisapride
 |  |  |  |  | clearly doubles the Tdecay | 1969 ms | +106% | +1012 ms | irregular calcium flux | Sparfloxacin
